Source: patent US12433866B2, “Lasofoxifene treatment of aromatase-resistant ER+ cancer” (Sermonix Pharmaceuticals, Inc., priority 2021, dated 2025)

Tests used:
MCF7 LTLT primary tumors [1] = experiment: Ki67 proliferation index by immunohistochemistry on fixed mammary glands, MCF7 LTLT MIND model; format: in vivo, NSG mice; details: for Effect on Ki67 percentage / proliferation index (in words): MCF7 LTLT model, comparisons as stated; for % Ki67 % mean: MCF7 LTLT primary tumors, IHC at sacrifice after 90-93 days of treatment, manual counting, Let− cohort, and Let+ cohort where label includes letrozole; for Ki67 percentage (mean +/− standard deviation): Let+ cohort (all groups also received letrozole 10 μg/day)
Method: (§1) After cell injection, mice were separated into 2 equal groups; one group received 10 μg/day of letrozole in 15% PEG400 in PBS via subcutaneous injection, “LTLT-Let”; the other group wasn't administered letrozole (“LTLT”). Two to three weeks after cell injections, mice in each group were randomized and treated 5 days/week with lasofoxifene (10 mg/kg, in 100 μl of PBS containing 15% PEG400), palbociclib (70 mg/kg, Med Chem Express #HY-50567, in 50 mM sodium lactate buffer pH4), or vehicle. Lasofoxifene and vehicle were administered subcutaneously. Palbociclib was administered via oral gavage 5 times/week. Fulvestrant (Med Chem Express #HY-13636) (“IC”) (5 mg/mouse) was administered once per week via subcutaneous injection in 100 μl of mineral oil. Mice were also treated with combinations of lasofoxifene+palbociclib, fulvestrant+palbociclib, lasofoxifene+letrozole and palbociclib or fulvestrant+palbociclib, or letrozole.
Harvested tissues were fixed in formalin for IHC and H&E staining. Tissue histology was performed by the Human Tissue Resource Center (HRTC) at the University of Chicago. Primary Glands excised from the mice were sectioned and stained with antibodies to estrogen receptor alpha (ThermoScientific, RM-9101-S0, clone SP1), progesterone receptor (ThermoScientific, RM-9102-S0, clone SP2), glucocorticoid receptor (Cell Signaling, Cat #3660), androgen receptor (Abcam, ab133273, clone EPR1535), Ki67 (ThermoScientific, Cat #RM-9106-s, Clone: SP6) and human-specific mouse monoclonal antibody to mitochondria (Abcam, ab92824, clone 112-1).
(§2) H&E and IHC slides were scanned on a Nikon eclipse Ti2 microscope with a 10× objective for high resolution images. Ki67 score was determined using standardized manual counting.
Immunohistochemistry with anti-Ki67 antibody was performed on fixed mammary glands to determine the proliferation index for MCF7 LTLT primary tumors.

[2] = tested on: MCF7 LTLT (AI-resistant, ER+, cells lacking ESR1 gain-of-function mutations) tumors; experiment: MIND model: luciferase-GFP MCF7 LTLT cells in mammary ducts of NSG mice, live luminescence imaging of primary tumors (total photon flux); format: in vivo; details: for Inhibition of primary tumor growth (conclusion in words): MCF7 LTLT tumors, AI-resistant, no ESR1 gain-of-function mutations
Method: Luciferase-GFP tagged LTLT cells were injected into the mammary ducts of NSG mice (MIND model) and tumor progression was monitored by live luminescence imaging of primary tumors, as well as ex vivo imaging and histochemical analysis of metastatic sites at study endpoint. Primary tumor area was also measured at study endpoint.
Cells were grown in RPMI containing 10% FBS and 1 μM letrozole.
Mouse studies were performed in compliance with an approved Institutional Animal Care and Use Committee protocol. NSG (NOD.Cg-Prkdcscid Il2rgtmlWjl/SzJ) mice were purchased from The Jackson Laboratories. Prior to injection, mice were anesthetized via inhalation with 2-3% isoflurane in oxygen. […] Tumor growth in situ was followed via imaging in a Xenogen IVIS 200 instrument in the Integrated Small Animal Imaging Research Resource at the University of Chicago.
Lasofoxifene and vehicle were administered subcutaneously. Palbociclib was administered via oral gavage 5 times/week. […] Mice were also treated with combinations of lasofoxifene+palbociclib, fulvestrant+palbociclib, lasofoxifene+letrozole and palbociclib or fulvestrant+palbociclib, or letrozole.
MCF7 LTLT cells labeled with GFP luciferase were injected into the mammary ducts of NSG mice to establish tumors that represent an AI resistant, non-ESR1-mutated, breast cancer model. Treatment with lasofoxifene, palbociclib and combinations of lasofoxifene and palbociclib were carried out in the presence (Let^+) or absence (Let^−) of letrozole, to account for the potential loss of letrozole resistance (“reversion”) in the Let^− cohort. Mice were imaged every other week in a Xenogen IVIS scanner to estimate tumor growth. At the end of the study, mammary glands were removed and weighed.

MCF7 LTLT primary tumors [3] = experiment: Mammary gland weight at sacrifice, MCF7 LTLT MIND model; format: in vivo, NSG mice; details: Let− cohort
Method: Mouse studies were performed in compliance with an approved Institutional Animal Care and Use Committee protocol. NSG (NOD.Cg-Prkdcscid Il2rgtmlWjl/SzJ) mice were purchased from The Jackson Laboratories. Prior to injection, mice were anesthetized via inhalation with 2-3% isoflurane in oxygen. Injections of single-cell suspensions of 250,000 MCF7 cells in the mammary ducts of inguinal glands 4 and 9 were performed as described (Behbod, F., et al. Breast Cancer Res. 11, R66 (2009); Sflomos, G., et al. Cancer Cell 29, 407-422 (2016); Laine, M., et al. Breast Cancer Res. 23, 54 (2021)). Tumor growth in situ was followed via imaging in a Xenogen IVIS 200 instrument in the Integrated Small Animal Imaging Research Resource at the University of Chicago. For IVIS imaging, mice were injected with 100 μl of a 0.1 M luciferin solution in PBS (Perkin Elmer XenoLight #122799).
After cell injection, mice were separated into 2 equal groups; one group received 10 μg/day of letrozole in 15% PEG400 in PBS via subcutaneous injection, “LTLT-Let”; the other group wasn't administered letrozole (“LTLT”). Two to three weeks after cell injections, mice in each group were randomized and treated 5 days/week with lasofoxifene (10 mg/kg, in 100 μl of PBS containing 15% PEG400), palbociclib (70 mg/kg, Med Chem Express #HY-50567, in 50 mM sodium lactate buffer pH4), or vehicle. […]

MCF7 LTLT cells = experiment: Ex vivo IVIS radiance of excised liver, lung, brain and bone at sacrifice (metastasis), MCF7 LTLT MIND model; design: species or system NSG mice; details: ex vivo radiance in bones at sacrifice
Method: as §1
After 90-93 days of treatment, mice were sacrificed, and mammary gland tumors were excised and weighed. Liver, bone brain and lungs were removed and imaged ex vivo in the IVIS 200, following an in vivo injection of luciferin 8 min prior to sacrifice, to measure luciferase activity.
At sacrifice, livers, lungs, bones and brains were excised and imaged ex vivo on the IVIS. […] Data for Let^+ group were evaluated but are not shown.

MCF7 LTLT primary tumors [4] = experiment: Percent tumor area vs total gland area by H&E of mammary gland sections, MCF7 LTLT MIND model; format: in vivo, NSG mice; details: Let− cohort
Method: as §1
Harvested tissues were fixed in formalin for IHC and H&E staining. Tissue histology was performed by the Human Tissue Resource Center (HRTC) at the University of Chicago. […]
as §2
H&E slides were scanned on a Nikon microscope and analyzed with the NSI element software.

[5] = post-menopausal women with no history of breast cancer, wild estrogen receptors; cited from earlier work
[6] = tested on: MCF-7 xenograft with activating ERα mutations; details: gain-of-function activating mutations in the ERα receptor; previous studies; cited from earlier work

SMILES | Effect on Ki67 percentage / proliferation index (in words) (MCF7 LTLT primary tumors [1]; Let+ cohort) | % Ki67 % mean (MCF7 LTLT primary tumors [1]) [%] | Tumor photon flux in the presence of letrozole (in words) ([2]; Let+ cohort, data not shown) | Total photon flux over time (in words) ([2]; imaged every other week, Let− cohorts shown) | Mammary gland weight at end of study (in words) (MCF7 LTLT primary tumors [3]) | Bone readings with a signal above threshold (MCF7 LTLT cells) [readings] | % tumor area of total gland area, H&E (in words) (MCF7 LTLT primary tumors [4]) | Reduction of the Ki67 percentage (MCF7 LTLT primary tumors [1]; Let+ cohort, versus letrozole control) [%] | Inhibition of primary tumor growth (conclusion in words) [2] | Inhibition of primary tumor growth (conclusion in words) ([2]; listed as Lasofoxifene) | Photon flux at day 104 (in words) ([2]; day 104, regardless of the presence of letrozole) | Risk of ER+ breast cancer (in words) [5] | Bone metastasis / bone radiance versus vehicle (in words) (MCF7 LTLT cells) | Inhibition of tumor growth and metastasis compared with fulvestrant (in words) [6] | Ki67 percentage (mean +/− standard deviation) (MCF7 LTLT primary tumors [1])
C[C@]12CC[C@@H]3c4ccc(O)cc4C[C@@H](CCCCCCCCC[S+]([O-])CCCC(F)(F)C(F)(F)F)[C@H]3[C@@H]1CC[C@@H]2O (stereo partly shown) [fulvestrant (ICI), fulvestrant] | do not reduce Ki67% levels | 56.8 | appeared to increase tumor photon flux | higher than all other treatments | inhibits mammary gland weight | 2 | did not reach statistical significance | – | – | – | – | – | – | – | –
Oc1ccc2c(c1)CC[C@H](c1ccccc1)[C@@H]2c1ccc(OCCN2CCCC2)cc1 [lasofoxifene] | – | 46.0 | – | – | inhibits increases in primary tumor weight | – | significantly lower | 6.5 | significantly inhibits primary tumor growth | significantly more effective than fulvestrant | significantly lower than vehicle and fulvestrant (ICI) treatment | reduce the risk of ER^+ breast cancer | appears to inhibit metastasis to the bone | more effective than fulvestrant at inhibiting tumor growth and metastasis to the liver, lung, bone and brain | –
N#Cc1ccc(C(c2ccc(C#N)cc2)n2cncn2)cc1 [letrozole] | significantly lowers the Ki67 percentage | 39.5 | – | – | – | – | – | – | – | – | – | – | – | – | 39.5+/−7.7%
CC(=O)c1c(C)c2cnc(Nc3ccc(N4CCNCC4)cn3)nc2n(C2CCCC2)c1=O [palbociclib] | – | 51.7 | – | – | – | – | – | – | – | – | – | – | – | – | 45.3+/−19.0%
